Reference: PubChem BioAssay AID588645 (Sanford-Burnham Center for Chemical Genomics, 2011)
Activity calls are given as the source filed them. How the calls were made is not given here.

What follows are compounds tested against Intestinal-type alkaline phosphatase (Homo sapiens) (UniProt P09923) (assay: human IAP enzyme inhibitors, SAR follow-up, mouse IAP inhibitor project, biochemical, set 2 (AID 588645)). Details: human intestinal alkaline phosphatase enzymatic inhibition assay.
Sequence of Intestinal-type alkaline phosphatase (Homo sapiens) (P09923 whole entry, looked up): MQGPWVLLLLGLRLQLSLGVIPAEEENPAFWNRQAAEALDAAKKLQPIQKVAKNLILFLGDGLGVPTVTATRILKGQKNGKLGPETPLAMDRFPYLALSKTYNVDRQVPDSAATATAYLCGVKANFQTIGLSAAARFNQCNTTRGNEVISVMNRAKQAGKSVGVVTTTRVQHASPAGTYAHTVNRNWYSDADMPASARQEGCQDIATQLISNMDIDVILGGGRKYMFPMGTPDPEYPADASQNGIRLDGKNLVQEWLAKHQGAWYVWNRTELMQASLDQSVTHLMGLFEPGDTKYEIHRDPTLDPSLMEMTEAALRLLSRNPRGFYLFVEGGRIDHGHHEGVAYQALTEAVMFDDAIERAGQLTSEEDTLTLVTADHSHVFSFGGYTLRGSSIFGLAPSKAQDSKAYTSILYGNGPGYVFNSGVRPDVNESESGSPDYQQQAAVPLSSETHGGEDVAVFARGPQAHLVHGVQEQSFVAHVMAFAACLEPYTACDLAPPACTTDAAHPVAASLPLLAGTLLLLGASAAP
`Cc1ccc(NC(=O)CCNS(=O)(=O)c2ccc3c(c2)oc(=O)n3C)cc1` was tested, and the IC50 was > 100 µM (inactive). In the case of `COc1ccc(CNC(=O)CNS(=O)(=O)c2ccc3[nH]c(=O)oc3c2)c(OC)c1`, the IC50 is reported as > 100 µM (inactive). In the case of `Cc1ccc(C)c(NC(=O)CCNS(=O)(=O)c2ccc3[nH]c(=O)oc3c2)c1`, the IC50 is reported as > 100 µM (inactive). `COc1ccc(C(=O)N/N=C/c2c(F)cccc2Cl)cc1OC` was tested, and the IC50 was > 100 µM (inactive). With `O=C(N/N=C/c1ccc(F)c(Br)c1)c1cc(O)c(O)c(O)c1` the IC50 was > 100 µM (inactive). `O=C(N/N=C/c1ccccc1F)c1ccc(O)cc1` was tested, and the IC50 was > 100 µM (inactive). For `Cc1ccc(C)c(NC(=O)C2CCCN(S(=O)(=O)c3ccc4c(c3)oc(=O)n4C)C2)c1` (stereo not drawn), the IC50 was > 100 µM (inactive). With `COc1ccccc1CNC(=O)CCNS(=O)(=O)c1ccc2[nH]c(=O)oc2c1` the IC50 was > 100 µM (inactive). In the case of `COc1cccc(CNC(=O)CCNS(=O)(=O)c2ccc3[nH]c(=O)oc3c2)c1`, the IC50 is reported as > 100 µM (inactive). In the case of `N#Cc1ccc(NC(=O)CNS(=O)(=O)c2ccc3[nH]c(=O)oc3c2)cc1`, the IC50 is reported as > 100 µM (inactive). For `N#Cc1cccc(NS(=O)(=O)c2ccc3[nH]c(=O)oc3c2)c1`, the IC50 was > 100 µM (inactive). For `CCOc1cc(C(=O)N/N=C/c2c(F)cccc2Cl)cc(OCC)c1OCC`, the IC50 was > 100 µM (inactive). `O=C(N/N=C/c1ccc(Cl)c(Cl)c1)c1cc(O)c(O)c(O)c1` was tested, and the IC50 was > 100 µM (inactive). In the case of `O=C(CCCNS(=O)(=O)c1ccc2[nH]c(=O)oc2c1)NCc1cccc(F)c1`, the IC50 is reported as > 100 µM (inactive). With `O=C(CCNS(=O)(=O)c1ccc2[nH]c(=O)oc2c1)NCc1cccc(F)c1` the IC50 was > 100 µM (inactive). `Cc1ccc(C)c(CNC(=O)C2CCCN(S(=O)(=O)c3ccc4[nH]c(=O)oc4c3)C2)c1` (stereo not drawn) was tested, and the IC50 was > 100 µM (inactive). For `O=C(CCNS(=O)(=O)c1ccc2[nH]c(=O)oc2c1)NCc1ccccc1Cl`, the IC50 was > 100 µM (inactive). With `Cc1ccccc1CNC(=O)CCCNS(=O)(=O)c1ccc2[nH]c(=O)oc2c1` the IC50 was > 100 µM (inactive). `O=c1[nH]c2ccc(S(=O)(=O)Nc3ccc4c(c3)OCO4)cc2o1` was tested, and the IC50 was > 100 µM (inactive). `O=C(N/N=C/c1c(F)cccc1Cl)c1cc(O)c(O)c(O)c1` was tested, and the IC50 was > 100 µM (inactive). With `COc1ccc(C(=O)N/N=C/c2ccccc2F)cc1` the IC50 was > 100 µM (inactive). In the case of `Cc1ccc(NC(=O)CCNS(=O)(=O)c2ccc3c(c2)oc(=O)n3C)cc1C`, the IC50 is reported as > 100 µM (inactive). With `O=C(CCS(=O)(=O)Nc1ccc2[nH]c(=O)oc2c1)NCc1ccccc1Cl` the IC50 was > 100 µM (inactive). For `COc1cccc(CNS(=O)(=O)c2ccc3[nH]c(=O)oc3c2)c1`, the IC50 was > 100 µM (inactive). In the case of `COc1cccc(C(=O)N/N=C/c2ccccc2F)c1`, the IC50 is reported as > 100 µM (inactive). `O=C(N/N=C/c1ccccc1F)c1ccccc1OCc1ccccc1` was tested, and the IC50 was > 100 µM (inactive). `COc1ccc(OC)c(NC(=O)CCNS(=O)(=O)c2ccc3c(c2)oc(=O)n3C)c1` was tested, and the IC50 was > 100 µM (inactive). `COc1ccc(CNC(=O)CNS(=O)(=O)c2ccc3[nH]c(=O)oc3c2)cc1` was tested, and the IC50 was > 100 µM (inactive). `O=C(N/N=C/c1ccccc1C(F)(F)F)c1cc(O)c(O)c(O)c1` was tested, and the IC50 was > 100 µM (inactive). With `O=C(N/N=C/c1cc(Br)ccc1F)c1ccc(O)cc1` the IC50 was > 100 µM (inactive). With `COc1ccc(CNC(=O)C2CCCN(S(=O)(=O)c3ccc4[nH]c(=O)oc4c3)C2)cc1` (stereo not drawn) the IC50 was > 100 µM (inactive). With `CC(C)Oc1ccc(CNC(=O)C2CCCN(S(=O)(=O)c3ccc4[nH]c(=O)oc4c3)C2)cc1` (stereo not drawn) the IC50 was > 100 µM (inactive). `COc1ccc(CNS(=O)(=O)c2ccc3[nH]c(=O)oc3c2)c(OC)c1` was tested, and the IC50 was > 100 µM (inactive). For `O=C(CCS(=O)(=O)Nc1ccc2[nH]c(=O)oc2c1)NCc1cccc(F)c1`, the IC50 was > 100 µM (inactive). With `COc1ccc(NC(=O)CCNS(=O)(=O)c2ccc3[nH]c(=O)oc3c2)cc1OC` the IC50 was > 100 µM (inactive). For `Cc1ccc(CNC(=O)C2CCCN(S(=O)(=O)c3ccc4[nH]c(=O)oc4c3)C2)cc1` (stereo not drawn), the IC50 was > 100 µM (inactive). With `COc1ccc(CCNC(=O)CCCNS(=O)(=O)c2ccc3[nH]c(=O)oc3c2)cc1` the IC50 was > 100 µM (inactive). In the case of `O=C(CCNS(=O)(=O)c1ccc2[nH]c(=O)oc2c1)NCc1ccccc1F`, the IC50 is reported as > 100 µM (inactive). With `O=C(CCNS(=O)(=O)c1ccc2c(c1)CCC2)NCCc1ccc2c(c1)OCO2` the IC50 was > 100 µM (inactive). `COc1ccc(NC(=O)CCNS(=O)(=O)c2ccc3ccccc3c2)cc1OC` was tested, and the IC50 was > 100 µM (inactive). With `O=C(N/N=C/c1c(F)cccc1Cl)c1ccc(O)cc1` the IC50 was > 100 µM (inactive). For `COc1ccc(/C=N/NC(=O)c2cc(O)c(O)c(O)c2)cc1OC`, the IC50 was > 100 µM (inactive). With `Cc1ccc(C)c(NS(=O)(=O)c2ccc3[nH]c(=O)oc3c2)c1` the IC50 was > 100 µM (inactive). `N#Cc1cccc(NC(=O)CNS(=O)(=O)c2ccc3[nH]c(=O)oc3c2)c1` was tested, and the IC50 was > 100 µM (inactive). For `Cc1ccc(NC(=O)CCNS(=O)(=O)c2ccc3[nH]c(=O)oc3c2)cc1C`, the IC50 was > 100 µM (inactive). For `CC(C)c1ccc(NC(=O)CCNS(=O)(=O)c2ccc3c(c2)oc(=O)n3C)cc1`, the IC50 was > 100 µM (inactive). `CCc1ccc(NC(=O)C2CCCN(S(=O)(=O)c3ccc4c(c3)oc(=O)n4C)C2)cc1` (stereo not drawn) was tested, and the IC50 was > 100 µM (inactive). In the case of `COc1cccc(/C=N/NC(=O)c2cc(O)c(O)c(O)c2)c1O`, the IC50 is reported as > 100 µM (inactive). In the case of `CCOc1ccc(CNC(=O)C2CCCN(S(=O)(=O)c3ccc4[nH]c(=O)oc4c3)C2)cc1OC` (stereo not drawn), the IC50 is reported as > 100 µM (inactive). `O=C(CCNS(=O)(=O)c1ccc2ccccc2c1)NCCc1ccc2c(c1)OCO2` was tested, and the IC50 was > 100 µM (inactive). In the case of `O=C(N/N=C/c1c(Cl)cccc1Cl)c1cc(O)c(O)c(O)c1`, the IC50 is reported as > 100 µM (inactive). `COc1ccc(NC(=O)CCNS(=O)(=O)c2ccc3c(c2)CCC3)cc1OC` was tested, and the IC50 was > 100 µM (inactive). `O=C(NCc1ccc(F)cc1)C1CCCN(S(=O)(=O)c2ccc3[nH]c(=O)oc3c2)C1` (stereo not drawn) was tested, and the IC50 was > 100 µM (inactive). With `COc1ccc(NC(=O)CCCNS(=O)(=O)c2ccc3[nH]c(=O)oc3c2)c(OC)c1` the IC50 was > 100 µM (inactive). For `CC(C)(C)c1ccc(/C=N/NC(=O)c2cc(O)c(O)c(O)c2)cc1`, the IC50 was > 100 µM (inactive). In the case of `O=C(N/N=C/c1ccccc1Cl)c1cc(O)c(O)c(O)c1`, the IC50 is reported as > 100 µM (inactive). In the case of `CSc1cccc(NC(=O)CCNS(=O)(=O)c2ccc3c(c2)oc(=O)n3C)c1`, the IC50 is reported as > 100 µM (inactive). For `COc1ccccc1CNC(=O)CCCNS(=O)(=O)c1ccc2[nH]c(=O)oc2c1`, the IC50 was > 100 µM (inactive). For `C/C(=N\NC(=O)c1cc(O)c(O)c(O)c1)c1ccc(O)cc1O`, the IC50 was > 100 µM (inactive). `CC(C)c1ccc(/C=N/NC(=O)c2cc(O)c(O)c(O)c2)cc1` gave an IC50 of 10.9 µM. With `COc1ccc(CCNC(=O)CCCNS(=O)(=O)c2ccc3[nH]c(=O)oc3c2)cc1OC` the IC50 was > 100 µM (inactive). `Cc1ccc(C)c(NC(=O)CNS(=O)(=O)c2ccc3[nH]c(=O)oc3c2)c1` was tested, and the IC50 was > 100 µM (inactive). In the case of `COc1ccc(/C=N\NC(=O)c2cc(O)c(O)c(O)c2)cc1CN1CCN(c2ccc(F)cc2)CC1`, the IC50 is reported as > 100 µM (inactive). With `COc1ccc(CNC(=O)CCCNS(=O)(=O)c2ccc3[nH]c(=O)oc3c2)cc1OC` the IC50 was > 100 µM (inactive). For `COc1ccc(NC(=O)CCCNS(=O)(=O)c2ccc3[nH]c(=O)oc3c2)cc1OC`, the IC50 was > 100 µM (inactive). For `O=C(CCCNS(=O)(=O)c1ccc2[nH]c(=O)oc2c1)NCc1ccccc1Cl`, the IC50 was > 100 µM (inactive). In the case of `O=C(N/N=C/c1c(F)cccc1F)c1ccc(O)cc1`, the IC50 is reported as > 100 µM (inactive). In the case of `O=C(CCNS(=O)(=O)c1ccc2[nH]c(=O)oc2c1)NCc1ccccc1`, the IC50 is reported as > 100 µM (inactive). For `O=C(CNS(=O)(=O)c1ccc2[nH]c(=O)oc2c1)NCCc1ccc2c(c1)OCO2`, the IC50 was > 100 µM (inactive). For `O=C(N/N=C/c1ccc(Br)cc1F)c1cc(O)ccc1O`, the IC50 was > 100 µM (inactive). In the case of `COc1ccc(CNC(=O)CCNS(=O)(=O)c2ccc3[nH]c(=O)oc3c2)cc1`, the IC50 is reported as > 100 µM (inactive). `O=C(CCNS(=O)(=O)c1ccc2[nH]c(=O)oc2c1)NCc1ccc(O)c(O)c1` was tested, and the IC50 was 18.1 µM. `COc1cccc(CNC(=O)CNS(=O)(=O)c2ccc3[nH]c(=O)oc3c2)c1` was tested, and the IC50 was > 100 µM (inactive). For `CCOc1cc(C(=O)N/N=C/c2ccccc2F)cc(OCC)c1OCC`, the IC50 was > 100 µM (inactive). `N#Cc1cccc(CNC(=O)CCNS(=O)(=O)c2ccc3[nH]c(=O)oc3c2)c1` was tested, and the IC50 was > 100 µM (inactive). With `O=C(N/N=C/c1ccc(F)cc1F)c1ccc(O)cc1` the IC50 was > 100 µM (inactive). With `CC(C)c1ccc(NC(=O)C2CCCN(S(=O)(=O)c3ccc4c(c3)oc(=O)n4C)C2)cc1` (stereo not drawn) the IC50 was > 100 µM (inactive). With `O=C(CCNS(=O)(=O)c1ccc2[nH]c(=O)oc2c1)NCc1ccc(C(F)(F)F)cc1` the IC50 was > 100 µM (inactive). `O=C(N/N=C/c1c(F)cccc1Cl)c1ccc(O)cc1O` was tested, and the IC50 was > 100 µM (inactive). With `COc1cc(C(=O)N/N=C/c2c(F)cccc2Cl)cc(OC)c1OC` the IC50 was > 100 µM (inactive). For `O=C(CCNS(=O)(=O)c1ccc2[nH]c(=O)oc2c1)Nc1ccc2c(c1)OCO2`, the IC50 was > 100 µM (inactive). With `O=C(NN=Cc1ccccc1F)c1ccc(O)cc1` the IC50 was > 100 µM (inactive). In the case of `O=C(CCNS(=O)(=O)c1ccc2[nH]c(=O)oc2c1)NCc1cccc(C(F)(F)F)c1`, the IC50 is reported as > 100 µM (inactive).
